Assay results from ChEMBL document CHEMBL2390840, “An analysis of the synthetic tryptamines AMT and 5-MeO-DALT: emerging 'Novel Psychoactive Drugs'” (Bioorg Med Chem Lett, 2013).

Experiments:
[1] = target: T1, 5-hydroxytryptamine receptor 2A (Homo sapiens, UniProt P28223); assay: Displacement of [3H]Ketanserin from human recombinant 5-HT2A receptor expressed in HEK293T cells after 1 to […] by scintillation counting analysis; type: cell-based, HEK-293T
[2] = target: T1, 5-hydroxytryptamine receptor 2A; assay: Agonist activity at human 5-HT2A receptor expressed in HEK293 cells assessed as increase in calcium mobilization by FLIPR assay; type: functional, cell-based
[3] = target: Alpha-1B adrenergic receptor (Homo sapiens, UniProt P35368); assay: Displacement of [3H]Prazosin from human recombinant adrenergic alpha1B receptor expressed in HEK293 cells after 1 to […] by scintillation counting analysis; type: cell-based
Chain of Alpha-1B adrenergic receptor (P35368 whole entry): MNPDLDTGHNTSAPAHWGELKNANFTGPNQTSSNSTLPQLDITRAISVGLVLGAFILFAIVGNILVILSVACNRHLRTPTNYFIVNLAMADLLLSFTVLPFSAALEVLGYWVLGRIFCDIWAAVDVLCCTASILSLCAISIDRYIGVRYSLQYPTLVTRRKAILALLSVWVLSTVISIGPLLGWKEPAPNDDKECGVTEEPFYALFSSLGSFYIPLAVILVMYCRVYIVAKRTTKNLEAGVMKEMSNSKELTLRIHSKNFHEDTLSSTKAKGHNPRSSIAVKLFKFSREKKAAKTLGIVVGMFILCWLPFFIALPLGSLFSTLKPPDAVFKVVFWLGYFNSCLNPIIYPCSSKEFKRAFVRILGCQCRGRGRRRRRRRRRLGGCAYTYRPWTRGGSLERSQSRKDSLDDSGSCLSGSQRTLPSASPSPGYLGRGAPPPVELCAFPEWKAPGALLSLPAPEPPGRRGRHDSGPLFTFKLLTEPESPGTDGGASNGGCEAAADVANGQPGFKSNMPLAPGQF

[4] = target: Alpha-1A adrenergic receptor (Homo sapiens, UniProt P35348); assay: Displacement of [3H]Prazosin from human recombinant adrenergic alpha1A receptor expressed in HEK293 cells after 1 to […] by scintillation counting analysis; type: cell-based
Chain of Alpha-1A adrenergic receptor (P35348 whole entry): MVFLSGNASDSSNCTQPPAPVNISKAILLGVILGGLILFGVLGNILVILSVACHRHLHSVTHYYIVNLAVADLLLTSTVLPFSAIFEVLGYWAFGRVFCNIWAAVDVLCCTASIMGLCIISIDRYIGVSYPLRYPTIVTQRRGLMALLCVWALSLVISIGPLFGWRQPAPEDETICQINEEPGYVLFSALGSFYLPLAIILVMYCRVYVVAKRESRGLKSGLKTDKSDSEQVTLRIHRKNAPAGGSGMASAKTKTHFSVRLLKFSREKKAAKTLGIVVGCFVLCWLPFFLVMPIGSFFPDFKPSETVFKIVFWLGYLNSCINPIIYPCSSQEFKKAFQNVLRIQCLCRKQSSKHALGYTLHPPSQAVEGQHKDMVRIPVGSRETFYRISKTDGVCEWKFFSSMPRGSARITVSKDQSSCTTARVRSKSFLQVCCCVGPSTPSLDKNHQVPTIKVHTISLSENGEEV

[5] = target: 5-hydroxytryptamine receptor 1B (Homo sapiens, UniProt P28222); assay: Displacement of [3H][…] from human recombinant 5-HT1B receptor expressed in HEK293 cells after 1 to […] by scintillation counting analysis; type: cell-based
Chain of 5-hydroxytryptamine receptor 1B (P28222 whole entry): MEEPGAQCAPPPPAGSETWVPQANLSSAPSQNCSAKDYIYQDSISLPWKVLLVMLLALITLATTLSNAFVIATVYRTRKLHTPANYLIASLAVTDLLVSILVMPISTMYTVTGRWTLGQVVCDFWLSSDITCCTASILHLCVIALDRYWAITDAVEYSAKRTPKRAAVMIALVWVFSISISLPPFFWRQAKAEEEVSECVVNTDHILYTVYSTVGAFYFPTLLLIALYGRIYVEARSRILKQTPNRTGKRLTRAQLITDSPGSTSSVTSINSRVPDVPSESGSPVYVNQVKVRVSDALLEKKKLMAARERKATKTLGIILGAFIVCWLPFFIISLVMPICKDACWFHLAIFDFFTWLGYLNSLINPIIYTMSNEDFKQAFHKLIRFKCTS

D(2) dopamine receptor = D(2) dopamine receptor (Homo sapiens, UniProt P14416); assay: Displacement of [3H]N-methylspiperone from human recombinant dopamine D2 receptor expressed in HEK293 cells after 1 to […] by scintillation counting analysis; type: cell-based
Chain of D(2) dopamine receptor (P14416 whole entry): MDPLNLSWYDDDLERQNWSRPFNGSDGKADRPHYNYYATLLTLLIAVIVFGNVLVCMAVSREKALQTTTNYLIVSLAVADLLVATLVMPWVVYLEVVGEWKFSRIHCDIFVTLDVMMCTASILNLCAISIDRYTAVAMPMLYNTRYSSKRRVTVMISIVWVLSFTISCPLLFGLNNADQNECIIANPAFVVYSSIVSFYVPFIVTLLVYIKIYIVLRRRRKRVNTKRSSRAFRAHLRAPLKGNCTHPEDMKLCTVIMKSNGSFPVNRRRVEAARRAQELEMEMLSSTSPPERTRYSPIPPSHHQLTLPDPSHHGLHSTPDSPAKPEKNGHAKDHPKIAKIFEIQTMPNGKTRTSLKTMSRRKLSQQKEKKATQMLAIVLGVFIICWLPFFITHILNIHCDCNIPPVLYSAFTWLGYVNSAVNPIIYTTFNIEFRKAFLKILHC

[6] = target: Alpha-2C adrenergic receptor (Homo sapiens, UniProt P18825); assay: Displacement of [3H]Clonidine from human recombinant adrenergic alpha2C receptor expressed in MDCK cells after 1 to […] by scintillation counting analysis; type: cell-based
Chain of Alpha-2C adrenergic receptor (P18825 whole entry): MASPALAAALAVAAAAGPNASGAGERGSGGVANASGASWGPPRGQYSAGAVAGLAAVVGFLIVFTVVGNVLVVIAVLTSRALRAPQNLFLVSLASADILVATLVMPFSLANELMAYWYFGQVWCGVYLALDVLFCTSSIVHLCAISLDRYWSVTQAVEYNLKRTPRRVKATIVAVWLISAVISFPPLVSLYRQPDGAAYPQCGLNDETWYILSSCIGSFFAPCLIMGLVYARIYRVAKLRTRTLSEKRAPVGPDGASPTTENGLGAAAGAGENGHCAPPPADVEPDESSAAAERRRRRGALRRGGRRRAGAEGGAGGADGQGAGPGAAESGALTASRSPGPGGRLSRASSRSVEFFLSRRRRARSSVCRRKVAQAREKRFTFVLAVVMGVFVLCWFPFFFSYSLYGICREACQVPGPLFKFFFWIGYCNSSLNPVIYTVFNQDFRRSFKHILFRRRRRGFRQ

[7] = target: Sodium-dependent noradrenaline transporter (Homo sapiens, UniProt P23975); assay: Displacement of [3H]Nisoxetine from human recombinant norepinephrine transporter expressed in HEK293 cells after 1 to […] by scintillation counting analysis; type: cell-based
Chain of Sodium-dependent noradrenaline transporter (P23975 whole entry): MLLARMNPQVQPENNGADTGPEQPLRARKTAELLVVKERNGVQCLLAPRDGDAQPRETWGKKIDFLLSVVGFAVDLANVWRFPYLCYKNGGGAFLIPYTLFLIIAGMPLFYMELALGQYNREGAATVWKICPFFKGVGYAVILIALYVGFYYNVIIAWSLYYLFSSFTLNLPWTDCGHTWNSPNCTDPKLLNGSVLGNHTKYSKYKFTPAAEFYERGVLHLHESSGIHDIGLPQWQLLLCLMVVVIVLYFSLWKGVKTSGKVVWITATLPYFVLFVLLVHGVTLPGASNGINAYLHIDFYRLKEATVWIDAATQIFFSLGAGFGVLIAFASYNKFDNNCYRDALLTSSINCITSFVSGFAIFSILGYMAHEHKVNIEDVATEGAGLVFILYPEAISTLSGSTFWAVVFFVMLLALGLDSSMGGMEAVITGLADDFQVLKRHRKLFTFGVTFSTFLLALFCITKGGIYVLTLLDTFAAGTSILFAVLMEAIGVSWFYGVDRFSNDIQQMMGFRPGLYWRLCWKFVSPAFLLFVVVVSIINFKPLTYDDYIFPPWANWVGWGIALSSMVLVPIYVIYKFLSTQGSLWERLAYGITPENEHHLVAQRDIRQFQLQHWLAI

[8] = target: Alpha-2B adrenergic receptor (Homo sapiens, UniProt P18089); assay: Displacement of [3H]Clonidine from human recombinant adrenergic alpha2B receptor expressed in HEK293T cells after 1 to […] by scintillation counting analysis; type: cell-based, HEK-293T
Chain of Alpha-2B adrenergic receptor (P18089 whole entry): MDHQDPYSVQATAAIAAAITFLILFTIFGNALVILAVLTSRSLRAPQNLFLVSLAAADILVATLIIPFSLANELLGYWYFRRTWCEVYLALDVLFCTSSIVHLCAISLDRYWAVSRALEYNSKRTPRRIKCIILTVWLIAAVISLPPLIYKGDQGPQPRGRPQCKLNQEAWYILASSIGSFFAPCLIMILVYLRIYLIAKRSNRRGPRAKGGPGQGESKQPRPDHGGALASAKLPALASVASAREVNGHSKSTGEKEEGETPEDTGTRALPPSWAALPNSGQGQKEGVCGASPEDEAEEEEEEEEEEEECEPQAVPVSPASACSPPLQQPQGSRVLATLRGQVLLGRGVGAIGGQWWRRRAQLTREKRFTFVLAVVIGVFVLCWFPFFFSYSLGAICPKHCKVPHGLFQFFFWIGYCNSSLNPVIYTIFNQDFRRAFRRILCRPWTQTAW

T1 sequence (P28223 whole entry): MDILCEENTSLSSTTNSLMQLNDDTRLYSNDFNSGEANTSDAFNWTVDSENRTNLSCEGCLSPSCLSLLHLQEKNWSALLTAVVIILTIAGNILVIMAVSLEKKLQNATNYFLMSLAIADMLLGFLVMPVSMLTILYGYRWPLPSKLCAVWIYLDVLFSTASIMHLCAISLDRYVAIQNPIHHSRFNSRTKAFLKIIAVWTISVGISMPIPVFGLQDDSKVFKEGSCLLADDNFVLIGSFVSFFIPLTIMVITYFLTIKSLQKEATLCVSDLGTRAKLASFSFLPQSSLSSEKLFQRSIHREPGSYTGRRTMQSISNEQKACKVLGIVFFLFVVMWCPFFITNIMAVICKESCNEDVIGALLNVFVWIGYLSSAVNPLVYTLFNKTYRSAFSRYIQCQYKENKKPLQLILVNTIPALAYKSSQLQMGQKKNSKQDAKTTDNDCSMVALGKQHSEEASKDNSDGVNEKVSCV

Structure (SMILES)	Ki [1]	EC50 ([2]; read-out: EC50)	EC50 ([2]; read-out: pEC50 (converted))	Ki [3]	Ki [4]	Ki [5]	Ki (D(2) dopamine receptor)	Ki [6]	Ki [7]	Ki [8]
C=CCN(CC=C)CCc1c[nH]c2ccc(OC)cc12	555 nM	2.8 nM	27.5 nM							
CC(N)Cc1c[nH]c2ccccc12 (stereo not given)				> 10 µM	> 10 µM	559 nM	> 10 µM	> 10 µM	> 10 µM	> 10 µM
